Laboratory results as given in US20230109010A1, “PESTICIDE COMPOSITIONS WITH SUPRAMOLECULAR STRUCTURES FOR AGRICULTURAL USE” (BPS JUST ENERGY TECHNOLOGY, LLC, priority 2020, published 2023).

Tests used:
palmer amaranth [1] = experiment: Field trial in corn at V3, broadcast treatment on 2-4 inch weeds, % weed control; assay type: in vivo, Amaranthus palmeri
Description: (§1) The herbicides tested were glufosinate, glyphosate, and mesotrione. Each herbicide was combined at the specified rate with either deionized water or SymMAX™ supramolecular host water mixture commercially available from Shotwell Hydrogenics at 15 gallons per acre (GPA). Specified rates for glufosinate were 22 ounces per acre, 11 ounces per acre, and 5.5 ounces per acre. Specified rates for glyphosate were 22 ounces per acre, 11 ounces per acre, and 5.5 ounces per acre. Specified rates for mesotrione were 3 ounces per acre, 2 ounces per acre, and 1 ounce per acre.
(§2) This example was conducted as a 4 replicate, RCBD (randomized control block design) in Quitman, GA. An untreated control was used as a standard that provided no weed control and no phytotoxicity. All treatments were compared to the untreated control. Counted dead weeds and living weeds were used to determine % weed control. The untreated control was also used to determine % crop phytotoxicity for the crop. Typical indications of phytotoxicity include chlorosis, stunting, epinasty, and/or leaf burn.
(§3) The trial ran for 14 days with weekly data assessments taken on % crop phytotoxicity and % weed control of four key species: palmer amaranth (Amaranthus palmeri), ivyleaf morning glory (Ipomoea hederacea), fall panicum (Panicum dichotomiflorum) and large crabgrass (Digitaria sanguinalis The test field was over seeded with weed seed obtained from the University of Georgia prior to corn planting. Treatments were applied as a broadcast treatment when corn had reached physiological growth stage V3 and weeds were in the 2-4″ size range. Treatments were applied at various rates ranging from about 1 ounce per acre to about 22 ounces per acre. Tables 9-10 show the % weed control when the weeds are treated with glufosinate. Tables 11-12 show the % weed control when the weeds are treated with glyphosphate. Tables 13-14 show the % weed control when the weeds are treated with mesotrione.

ivyleaf morning glory = experiment: as above; assay type: in vivo, Ipomoea hederacea
Description: as §1, §2, §3

fall panicum [2] = experiment: as above; assay type: in vivo, Panicum dichotomiflorum
Description: as §1, §2, §3

large crabgrass [3] = experiment: as above; assay type: in vivo, Digitaria sanguinalis
Description: as §1, §2, §3

palmer amaranth [4] = experiment: Field trial in corn, herbicide applied 3 days after planting, % weed control; assay type: in vivo, Amaranthus palmeri
Method: (§4) The herbicides tested were acetochlor and s-metolachlor. Each herbicide was combined at the specified rate with either deionized water or SymMAX™ supramolecular host chemistry that is commercially available from Shotwell Hydrogenics at 15 gallons per acre (GPA). Specified rates for acetochlor were 0.5 parts per acre, 1 part per acre, and 2 parts per acre. […]
as §2
(§5) The trial ran for 28 days with weekly data assessments taken on % crop phytotoxicity and % weed control of three key species: palmer amaranth (Amaranthus palmeri), fall panicum (Panicum dichotomiflorum) and large crabgrass (Digitaria sanguinalis). The test field was over seeded with weed seed obtained from the University of Georgia prior to corn planting. Treatments were applied 3 days after planting as a broadcast application at various rates ranging from about 0.5 parts per acre to about 2 parts per acre. Tables 1-4 show the % weed control when the weeds are treated with acetachlor. Tables 4-8 show the % weed control when the weeds are treated with s-metolachlor.

fall panicum [5] = experiment: as above; assay type: in vivo, Panicum dichotomiflorum
Method: as §4, §2, §5

large crabgrass [6] = experiment: as above; assay type: in vivo, Digitaria sanguinalis
Method: as §4, §2, §5

[7] = 7 days, glufosinate 5.5 ounces/acre
[8] = 7 days, glufosinate 11 ounces/acre
[9] = 7 days, glufosinate 22 ounces/acre
[10] = 14 days, glufosinate 5.5 ounces/acre
[11] = 14 days, glufosinate 11 ounces/acre
[12] = 14 days, glufosinate 22 ounces/acre
[13] = 7 days, s-metolachlor 0.75 part/acre
[14] = 7 days, s-metolachlor 1 part/acre
[15] = 7 days, s-metolachlor 1.5 parts/acre
[16] = 14 days, s-metolachlor 0.75 part/acre
[17] = 14 days, s-metolachlor 1 part/acre
[18] = 14 days, s-metolachlor 1.5 parts/acre
[19] = 21 days, s-metolachlor 0.75 part/acre
[20] = 21 days, s-metolachlor 1 part/acre
[21] = 21 days, s-metolachlor 1.5 parts/acre
[22] = 28 days, s-metolachlor 0.75 part/acre
[23] = 28 days, s-metolachlor 1 part/acre
[24] = 28 days, s-metolachlor 1.5 parts/acre

CP(=O)(O)CCC(N)C(=O)O (stereo not drawn) [Glufosinate, glufosinate]
% WEED CONTROL FOR PALMER AMARANTH (palmer amaranth [1]; [7]): 51.5%
% WEED CONTROL FOR PALMER AMARANTH (palmer amaranth [1]; [8]): 77.9%
% WEED CONTROL FOR PALMER AMARANTH (palmer amaranth [1]; [9]): 82.6%
% WEED CONTROL FOR PALMER AMARANTH (palmer amaranth [1]; [10]): 29.0%
% WEED CONTROL FOR PALMER AMARANTH (palmer amaranth [1]; [11]): 69.3%
% WEED CONTROL FOR PALMER AMARANTH (palmer amaranth [1]; [12]): 76.1%
% WEED CONTROL FOR IVYLEAF MORNINGLORY (ivyleaf morning glory; [7]): 16.5%
% WEED CONTROL FOR IVYLEAF MORNINGLORY (ivyleaf morning glory; [8]): 52.3%
% WEED CONTROL FOR IVYLEAF MORNINGLORY (ivyleaf morning glory; [9]): 70.1%
% WEED CONTROL FOR IVYLEAF MORNINGLORY (ivyleaf morning glory; [10]): 5.1%
% WEED CONTROL FOR IVYLEAF MORNINGLORY (ivyleaf morning glory; [11]): 41.2%
% WEED CONTROL FOR IVYLEAF MORNINGLORY (ivyleaf morning glory; [12]): 64.0%
% WEED CONTROL FOR FALL PANICUM (fall panicum [2]; [7]): 100.0%
% WEED CONTROL FOR FALL PANICUM (fall panicum [2]; [8]): 99.5%
% WEED CONTROL FOR FALL PANICUM (fall panicum [2]; [9]): 100.0%
% WEED CONTROL FOR FALL PANICUM (fall panicum [2]; [10]): 83.3%
% WEED CONTROL FOR FALL PANICUM (fall panicum [2]; [11]): 92.7%
% WEED CONTROL FOR FALL PANICUM (fall panicum [2]; [12]): 95.5%
% WEED CONTROL FOR LARGE CRABGRASS (large crabgrass [3]; [7]): 100.0%
% WEED CONTROL FOR LARGE CRABGRASS (large crabgrass [3]; [8]): 100.0%
% WEED CONTROL FOR LARGE CRABGRASS (large crabgrass [3]; [9]): 100.0%
% WEED CONTROL FOR LARGE CRABGRASS (large crabgrass [3]; [10]): 91.8%
% WEED CONTROL FOR LARGE CRABGRASS (large crabgrass [3]; [11]): 99.5%
% WEED CONTROL FOR LARGE CRABGRASS (large crabgrass [3]; [12]): 100.0%

CCc1cccc(C)c1N(C(=O)CCl)[C@@H](C)COC [S-metolachlor, s-metolachlor]
% WEED CONTROL FOR PALMER AMARANTH (palmer amaranth [4]; [13]): 96.0%
% WEED CONTROL FOR PALMER AMARANTH (palmer amaranth [4]; [14]): 99.3%
% WEED CONTROL FOR PALMER AMARANTH (palmer amaranth [4]; [15]): 100.0%
% WEED CONTROL FOR PALMER AMARANTH (palmer amaranth [4]; [16]): 94.3%
% WEED CONTROL FOR PALMER AMARANTH (palmer amaranth [4]; [17]): 98.0%
% WEED CONTROL FOR PALMER AMARANTH (palmer amaranth [4]; [18]): 100.0%
% WEED CONTROL FOR PALMER AMARANTH (palmer amaranth [4]; [19]): 96.0%
% WEED CONTROL FOR PALMER AMARANTH (palmer amaranth [4]; [20]): 99.0%
% WEED CONTROL FOR PALMER AMARANTH (palmer amaranth [4]; [21]): 100.0%
% WEED CONTROL FOR PALMER AMARANTH (palmer amaranth [4]; [22]): 98.8%
% WEED CONTROL FOR PALMER AMARANTH (palmer amaranth [4]; [23]): 100.0%
% WEED CONTROL FOR PALMER AMARANTH (palmer amaranth [4]; [24]): 100.0%
% WEED CONTROL FOR FALL PANICUM (fall panicum [5]; [13]): 91.3%
% WEED CONTROL FOR FALL PANICUM (fall panicum [5]; [14]): 97.5%
% WEED CONTROL FOR FALL PANICUM (fall panicum [5]; [15]): 100.0%
% WEED CONTROL FOR FALL PANICUM (fall panicum [5]; [16]): 83.5%
% WEED CONTROL FOR FALL PANICUM (fall panicum [5]; [17]): 91.8%
% WEED CONTROL FOR FALL PANICUM (fall panicum [5]; [18]): 97.8%
% WEED CONTROL FOR FALL PANICUM (fall panicum [5]; [19]): 90.1%
% WEED CONTROL FOR FALL PANICUM (fall panicum [5]; [20]): 89.4%
% WEED CONTROL FOR FALL PANICUM (fall panicum [5]; [21]): 98.9%
% WEED CONTROL FOR FALL PANICUM (fall panicum [5]; [22]): 88.3%
% WEED CONTROL FOR FALL PANICUM (fall panicum [5]; [23]): 97.3%
% WEED CONTROL FOR FALL PANICUM (fall panicum [5]; [24]): 100.0%
% WEED CONTROL FOR LARGE CRABGRASS (large crabgrass [6]; [13]): 92.0%
% WEED CONTROL FOR LARGE CRABGRASS (large crabgrass [6]; [14]): 99.0%
% WEED CONTROL FOR LARGE CRABGRASS (large crabgrass [6]; [15]): 100.0%
% WEED CONTROL FOR LARGE CRABGRASS (large crabgrass [6]; [16]): 82.8%
% WEED CONTROL FOR LARGE CRABGRASS (large crabgrass [6]; [17]): 89.0%
% WEED CONTROL FOR LARGE CRABGRASS (large crabgrass [6]; [18]): 98.0%
% WEED CONTROL FOR LARGE CRABGRASS (large crabgrass [6]; [19]): 91.3%
% WEED CONTROL FOR LARGE CRABGRASS (large crabgrass [6]; [20]): 84.3%
% WEED CONTROL FOR LARGE CRABGRASS (large crabgrass [6]; [21]): 93.0%
% WEED CONTROL FOR LARGE CRABGRASS (large crabgrass [6]; [22]): 90.0%
% WEED CONTROL FOR LARGE CRABGRASS (large crabgrass [6]; [23]): 99.7%
% WEED CONTROL FOR LARGE CRABGRASS (large crabgrass [6]; [24]): 100.0%
